Source: patent US20240100013A1, “SOTAGLIFLOZIN FOR IMPROVING LEFT ATRIAL FUNCTION” (CHARITÉ-UNIVERSITÄTSMEDIZIN BERLIN, priority 2021, published 2024)

Assays:
[1] = tested on: LA cardiomyocytes; assay: Ca2+ transient (CaT) measurements (Fura-2) in LA cardiomyocytes, incl. glucose starvation/reintroduction and glycolytic inhibition; type: cell-based, rat
From the text: Cardiomyocyte isolation. LA and LV cardiomyocytes were isolated using enzymatic digestion as previously described in detail. See Bode D, Guthof T, Pieske B M, Heinzel F R, Hohendanner F: “Isolation of Atrial Cardiomyocytes from a Rat Model of Metabolic Syndrome-related Heart Failure with Preserved Ejection Fraction,” J Vis Exp 2018(137).
Solutions and chemicals. Chemicals were obtained from Sigma-Aldrich (St. Louis, MO, USA) unless noted otherwise. The dual SGLT1/2 inhibitor sotagliflozin was provided by Lexicon Pharmaceuticals (The Woodlands, TX, USA). Fluorescent dyes Fura-2 AM, Rhod-2 AM, MitoTracker red, MitoTracker green, TMRE and H2-DCF were obtained from Thermo Fisher Scientific (Waltham, MA, USA). Tyrode solution contained (in mM): 130 NaCL, 4 KCl, 2 CaCl, 1 MgCl2, 10 Glucose, 10 HEPES; pH adjusted to 7.4 with NaOH. LA cardiomyocytes were plated on laminin-coated glass coverslips. 20 mM caffeine was added to Tyrode solution to induce sarcoplasmic reticulum (SR) Ca^2+ release and obtain a measure of SR Ca^2+ content. […] For glucose starvation (FIGS. 2H-J, 5A-D), glucose of Tyrode solution was replaced with 30 mM mannitol. For sub-sequent glucose reintroduction, mannitol was replaced with 30 mM glucose (“high glucose condition”).
Ca^2+ measurements and sarcomere shortening. Radiometric Ca^2+ measurements (excitation: 340 nm and 385 nm, emission: 510±10 nm; [Ca^2+] expressed as the ratio R=F340/F380) were performed either with a CytoCypher MultiCell System (CytoCypher BV, Netherlands; FIGS. 1C-F, 2D-G, 4A-F) or an Axiovert 200 microscope (Zeiss, Oberkochen, Germany) fluorescence imaging assembly (FIGS. 2A-C, 2H-J, 3A-E, 6E-I). LA cardiomyocytes were loaded with Fura-2 for 30 min at room temperature, washed twice with Tyrode solution and transferred to the microscope. Experiments were conducted at 37° C. and CaT were recorded at steady state (following electric stimulation).
CaT and sarcomere shortening of LA and LV cardiomyocytes were recorded for 10 s at 3 Hz stimulation. See FIGS. 2D-G, 4A-F. Electric stimulation was turned off and spontaneous SR Ca^2+ release events (See Voigt N, Heijman J, Wang Q, Chiang D Y, Li N, Karck M, Wehrens X H T, Nattel S, Dobrev D: “Cellular and molecular mechanisms of atrial arrhythmogenesis in patients with paroxysmal atrial fibrillation,” Circulation 2014, 129(2):145-156) (SCaEs) immediately recorded for a duration of 10 s (FIG. 1C-F). In a sub-set of LA cells, CaT were recorded for 10 s at 1 Hz stimulation. Electric stimulation was turned off, the cells immediately exposed to 20 mM caffeine and the sub-sequent caffeine-induced CaT recorded for 10 s (FIG. 2A-C, 3A-E). Sodium-calcium exchanger (NCX) activity was calculated as previously described. See Hohendanner F, Walther S, Maxwell J T, Kettlewell S, Awad S, Smith G L, Lonchyna V A, Blatter L A: “Inositol-1,4,5-trisphosphate induced Ca^2+ release and excitation-contraction coupling in atrial myocytes from normal and failing hearts,” J Physiol 2015, 593(6):1459-1477.
Cells were treated with 2-deoxyglucose to inhibit glycolysis for a duration of 3 min, while maintaining steady stimulation at 1 Hz and CaT were recorded for another 10 s. A sub-set of cells was starved of glucose for 1 h at 37° C. CaT were recorded for 10 s at 1 Hz stimulation. See FIGS. 2H-J. Cells were exposed to glucose and constant electric pacing at 1 Hz was maintained. After 1 min, CaT transients were recorded for 10 s at 1 Hz stimulation.

[2] = tested on: LA cardiomyocytes; assay: Mitochondrial structure and Ca2+ uptake in LA cardiomyocytes; type: cell-based, rat; conditions: HFpEF
From the text: For cell membrane permeabilization and subsequent measurements of mitochondrial Ca^2+ uptake (See ‘Mitochondrial structure and Ca^2+ uptake’) wash and internal solutions were used. Wash solution contained (in mM): 100 potassium acetate, 15 KCl, 0.35 EGTA, 0.75 MgCl2, 10 HEPES; pH adjusted to 7.2 with KOH. Internal solution contained (in mM): 125 KCl, 10 NaCl, 20 HEPES, 5 pyruvate, 2 maleic acid, 2 glutamic acid, 0.5 KH2PO4, 0.5 MgCl2, 5 EGTA, 0.002 free Ca^2+(MaxChelator), 15 BDM, pH adjusted to 7.2 with KOH. For permeabilization, 0.005% saponin was added to the internal solution.
Mitochondrial structure and Ca^2+ uptake. Mitochondrial structure was visualized by local thresholding of two-dimensional images acquired with MitoTracker Red (FIGS. 5A-B, 6D) and MitoTracker Green (FIGS. 4C-F) at an LSM 800 laser scanning microscope (Zeiss, Oberkochen, Germany). The fraction of mitochondria in relation to cell surface was taken as a measure of mitochondrial density. The averaged perimeter to area ratio of mitochondrial structures per cell was calculated as an indicator of mitochondrial fission using a 2-step Otsu thresholding algorithm. See Hohendanner F, Ljubojevic S, MacQuaide N, Sacherer M, Sedej S, Biesmans L, Wakula P, Platzer D, Sokolow S, Herchuelz A et al: “Intracellular dyssynchrony of diastolic cytosolic [Ca(2)(+)] decay in ventricular cardiomyocytes in cardiac remodeling and human heart failure,” Circ Res 2013, 113(5):527-538.
Mitochondrial Ca^2+ uptake was determined as previously described in detail. See Maxwell J T, Tsai C H, Mohiuddin T A, Kwong J Q: “Analyses of Mitochondrial Calcium Influx in Isolated Mitochondria and Cultured Cells,” Journal of visualized experiments: JoVE 2018(134). LA cardiomyocytes were loaded with Rhod-2 AM and MitoTracker green, transferred to an LSM 800 laser scanning microscope and washed twice with sodium and calcium-free wash solution. The cells were then permeabilized with internal solution containing 0.005% saponin for a duration of 30-60 s and consecutively washed twice with nominal Ca^2+ free internal solution containing 5 mM EGTA. Two-dimensional images of Rhod-2 (excitation: 559 nm, emission: 575-675 nm) and MitoTracker green fluorescence (excitation: 488 nm, emission: 505-525 nm) were obtained. The perfusion was switched to internal solution containing 2 μM Ca^2+. After 1 min, a second set of Rhod-2/MitoTracker images was obtained. Following another 1-min interval, a third set of images was obtained to confirm that mitochondrial Ca^2+ uptake had indeed been completed in the second set. A binary mask of mitochondrial structures was derived from MitoTracker green images and positive pixels defined as the region-of-interest for sub-sequent determination of Rhod-2 signal intensity (F). Signal intensity during perfusion with 0 μM Ca^2+ was defined as F0 and changes of [Ca^2+] after exposure to 2 μM Ca^2+ expressed as ΔF=F−F0. The change of mitochondrial density (L.%) was quantified as a measure of mitochondrial swelling.

[3] = HFpEF, 2-deoxyglucose, 3 min, 1 Hz
[4] = HFpEF, 3 Hz, 5 mM extracellular [Ca2+]
[5] = baseline, 1 Hz, 2 mM Ca2+, chronic treatment

CCOc1ccc(Cc2cc([C@@H]3O[C@H](SC)[C@@H](O)[C@H](O)[C@H]3O)ccc2Cl)cc1 [sotagliflozin, (2S,3R,4R,5S,6R)-2-(4-chloro-3-(4-ethoxybenzyl)phenyl)-6-(methylthio)tetrahydro-2H-pyran-3,4,5-triol]
increased CaT amplitude gain upon glycolytic inhibition [1, 3]: prevented
increased influx of diastolic Ca2+ upon glycolytic inhibition [1, 3]: prevented
CaT amplitudes [1, 4]: unchanged
diastolic [Ca2+] [1, 4]: significant reduction
glucose-mediated influx of diastolic Ca2+ ([1]; HFpEF, 1 h glucose starvation, then 30 mM glucose): prevented
CaT amplitude [1, 5]: did not alter
diastolic [Ca2+] [1, 5]: did not alter
increased density of mitochondria in LA cardiomyocytes [2]: prevented
increase of mitochondrial Ca2+ uptake ([2]; Sota vs vehicle): two-fold increase
mitochondrial fission ([2]; after 1 h glucose starvation): significantly reduced
swelling of mitochondria ([2]; after exposure to 2 μM Ca2+): this effect did not occur
mitochondrial Ca2+ uptake ([2]; permeabilized cells, exposure from 0 μM to 2 μM Ca2+, vehicle 0.84±0.07): 1.76±0.27 AF/F0
